This assay concerns the target T1, human LMPTP-A (Homo sapiens, UniProt P24666).
T1 sequence (P24666 1-158): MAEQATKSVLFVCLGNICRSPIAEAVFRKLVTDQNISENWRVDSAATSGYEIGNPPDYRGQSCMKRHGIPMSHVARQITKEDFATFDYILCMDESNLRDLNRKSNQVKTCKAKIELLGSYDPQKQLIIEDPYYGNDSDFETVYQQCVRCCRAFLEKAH
Briefly: Enzyme Assay of Inhibition of LMPTP-A. It is filed as biochemical. The settings on record: phosphatase assay, OMFP or pNPP substrate, 50 mM Bis-Tris pH 6.0, 37° C. On the procedure: Phosphatase assays were performed in buffer containing 50 mM Bis-Tris, pH 6.0, 1 mM DTT and 0.01% Triton X-100 at 37° C. For assays conducted with 3-O-methylfluorescein phosphate (OMFP) as substrate, fluorescence was monitored continuously at λex=485 and λem=525 nm. For assays conducted with para-nitrophenylphosphate (pNPP) as substrate, the reaction was stopped by addition of 2× reaction volume of 1 M NaOH, and absorbance was measured at 405 nm. IC50 values of compounds disclosed herein were determined from plots of inhibitor concentration versus percentage of enzyme activity. For inhibitor selectivity assays, each PTP was incubated with either 0.4 mM OMFP or 5 mM pNPP in the presence of 40 μM compound or DMSO. […] For the inhibitor reversibility assay, 50 nM human LMPTP-A was pre-incubated with 10 μM of compound disclosed herein or DMSO for 5 min. The enzyme was diluted 100× in phosphatase assay buffer containing 0.4 mM OMFP and fluorescence was measured at the indicated time points.

With `OCCNc1ncn(Cc2c(Cl)cccc2Cl)c2ncnc1-2` [2-[3-(2,6-Dichloro-benzyl)-3H-purin-6-ylamino]-ethanol], the IC50 lay in the range of 1000 to 20000 nM.

Consider `COc1ccncc1-c1nc2c(N)ncn(Cc3c(Cl)cccc3Cl)c-2n1` [3-[(2,6-Dichlorophenyl)methyl]-8-(4-methoxy(3-pyridyl))-3-hydropurine-6-ylamine], for which the IC50 was at most 1000 nM.

In turn, “3-[(2,6-dichlorophenyl)methyl]-8-[(4-chlorophenyl)methyl]-3-hydropurine-6-ylamine” came in with an IC50 of at most 1000 nM.

For the compound `Nc1ncn(Cc2cc(Cl)ccc2Cl)c2ncnc1-2` [3-(2,5-Dichloro-benzyl)-3H-purin-6-ylamine], the IC50 fell in the range of 1000 to 20000 nM.

In turn, `Fc1cccc(Nc2ncn(Cc3c(Cl)cccc3Cl)c3ncnc2-3)c1` [{3-[(2,6-Dichlorophenyl)methyl](3-hydropurin-6-yl)}(3-fluorophenyl)amine] registered an IC50 of 1000 to 20000 nM.

Compound `Nc1ncn(Cc2cccc(Cl)c2Cl)c2ncnc1-2` [3-(2,3-Dichloro-benzyl)-3H-purin-6-ylamine] showed an IC50 of 1000 to 20000 nM.

Compound `Clc1cccc(Cl)c1Cn1cnc(N2CCOCC2)c2ncnc1-2` [3-(2,6-Dichloro-benzyl)-6-morpholin-4-yl-3H-purine] yielded an IC50 of at least 20000 nM.

`Nc1ncn(Cc2c(Cl)cccc2Cl)c2nc(-c3cc[nH]n3)nc1-2` [3-[(2,6-Dichlorophenyl)methyl]-8-pyrazol-5-yl-3-hydropurine-6-ylamine] came in with an IC50 of at least 20000 nM.

As for `Clc1cccc(Cl)c1Cn1cnc(NCc2ccco2)c2ncnc1-2` [[3-(2,6-Dichloro-benzyl)-3H-purin-6-yl]-furan-2-ylmethyl-amine], the IC50 lay within 1000 to 20000 nM.

Take `FC(F)Oc1ccccc1Nc1ncn(Cc2c(Cl)cccc2Cl)c2ncnc1-2` [3-(2,6-dichlorobenzyl)-N-(2-(difluoromethoxy)plienyl)-3H-purin-6-amine]: the IC50 was 1000 to 20000 nM.

For `Clc1cccc(Cl)c1Cn1cnc(NCc2ccccn2)c2ncnc1-2` [[3-(2,6-Dichloro-benzyl)-3H-purin-6-yl]-pyridin-2-ylmethyl-amine], the IC50 was 1000 to 20000 nM.

`Clc1cccc(Cl)c1Cn1cnc(NCc2cccnc2)c2ncnc1-2` [[3-(2,6-Dichloro-benzyl)-3H-purin-6-yl]-pyridin-3-ylmethyl-amine]: the IC50 fell in the range of 1000 to 20000 nM.

In turn, `Clc1cccc(Cl)c1Cn1cnc(N2CCCC2)c2ncnc1-2` [3-(2,6-Dichloro-benzyl)-6-pyrrolidin-1-yl-3H-purine] displayed an IC50 of at least 20000 nM.

Turning to `Clc1cccc(Cn2cnc(NCc3ccco3)c3ncnc2-3)c1Cl` [3-(2,3-dichlorobenzyl)-N-(furan-2-ylmethyl)-3H-purin-6-amine], the IC50 lay within 1000 to 20000 nM.

Consider `Nc1ncn(Cc2c(Cl)cccc2Cl)c2nc(C3CCCCC3)nc1-2` [3-[(2,6-Dichlorophenyl)methyl]-8-cyclohexyl-3-hydropurine-6-ylamine], for which the IC50 is at most 1000 nM.

Compound `Nc1ncn(Cc2c(Cl)cccc2Cl)c2nc(C3=CCNCC3)nc1-2` [3-(2,6-Dichloro-benzyl)-8-(1,2,3,6-tetrahydro-pyridin-4-yl)-3H-purin-6-ylamine] gave an IC50 of at most 1000 nM.

In the case of `COc1ccc(Cn2cnc(NCc3ccco3)c3ncnc2-3)cc1` [Furan-2-ylmethyl-[3-(4-methoxy-benzyl)-3H-purin-6-yl]-amine], the IC50 is at least 20000 nM.

As to `CC(C)(C)c1ccccc1Nc1ncn(Cc2c(Cl)cccc2Cl)c2ncnc1-2` [{3-[(2,6-Dichlorophenyl)methyl](3-hydropurin-6-yl)}[2-(tert-butyl)phenyl]amine], the IC50 was at least 20000 nM.

For `Nc1ncn(Cc2ccc(Cl)s2)c2ncnc1-2` [3-((5-chlorothiophen-2-yl)methyl)-3H-purin-6-amine], the IC50 is 1000 to 20000 nM.

For `COc1ccc(Cc2nc3c(N)ncn(Cc4c(Cl)cccc4Cl)c-3n2)cc1` [3-[(2,6-dichlorophenyl)methyl]-8-[(4-methoxyphenyl)methyl]-3-hydropurine-6-ylamine], the IC50 is at most 1000 nM.

In turn, `O=[N+]([O-])c1ccc(Nc2ncn(Cc3c(Cl)cccc3Cl)c3ncnc2-3)cc1` [{3-[(2,6-Dichlorophenyl)methyl](3-hydropurin-6-yl)}(4-nitrophenyl)amine] showed an IC50 of 1000 to 20000 nM.

In turn, `NCCNc1ncn(Cc2c(Cl)cccc2Cl)c2ncnc1-2` [(2-Aminoethyl){3-[(2,6-dichlorophenyl)methyl](3-hydropurin-6-yl)}amine] displayed an IC50 of at least 20000 nM.

On to `Nc1ncn(Cc2c(Cl)cccc2Cl)c2nc(-c3ccco3)nc1-2` [3-[(2,6-Dichlorophenyl)methyl]-8-(2-furyl)-3-hydropurine-6-ylamine], for which the IC50 was at most 1000 nM.

Compound `Cc1cccc(C)c1Cn1cnc(N)c2ncnc1-2` [3-(2,6-dimethylbenzyl)-3H-purin-6-amine] displayed an IC50 of 1000 to 20000 nM.

Consider `Nc1ncn(Cc2c(Cl)cccc2Cl)c2nc(-c3c(F)cccc3F)nc1-2` [3-[(2,6-dichlorophenyl)methyl]-8-(2,6-difluorophenyl)-3-hydropurine-6-ylamine], for which the IC50 is at most 1000 nM.

As for `Cc1noc(C)c1-c1nc2c(N)ncn(Cc3c(Cl)cccc3Cl)c-2n1` [3-(2,6-dichlorobenzyl)-8-(3,5-dimethylisoxazol-4-yl)-3H-purin-6-amine], the IC50 is at most 1000 nM.

Compound `Nc1ncn(Cc2ccc(F)cc2F)c2ncnc1-2` [3-(2,4-difluorobenzyl)-3H-purin-6-amine] returned an IC50 of 1000 to 20000 nM.

Compound `O=C(Nc1ncn(Cc2c(Cl)cccc2Cl)c2ncnc1-2)c1ccncc1` [N-[3-(2,6-Dichloro-benzyl)-3H-purin-6-yl]-isonicotinamide] gave an IC50 of at most 1000 nM.

For the compound `Nc1ncn(Cc2c(Cl)cccc2Cl)c2nc(-c3ccc(F)c(F)c3F)nc1-2` [3-[(2,6-dichlorophenyl)methyl]-8-(2,3,4-trifluorophenyl)-3-hydropurine-6-ylamine], the IC50 was at most 1000 nM.

Regarding `Nc1ncn(Cc2c(Cl)cccc2C(=O)O)c2ncnc1-2` [2-((6-amino-3H-purin-3-yl)methyl)-3-chlorobenzoic acid], the IC50 is 1000 to 20000 nM.

In the case of `Nc1ncn(Cc2c(Cl)cccc2Cl)c2nc(-c3cccs3)nc1-2` [3-[(2,6-Dichlorophenyl)methyl]-8-(2-thienyl)-3-hydropurine-6-ylamine], the IC50 is at most 1000 nM.

On to `Cn1ccnc1Cn1cnc(N)c2ncnc1-2` [3-((1-methyl-1H-imidazol-2-yl)methyl)-3H-purin-6-amine], for which the IC50 was at least 20000 nM.

For the compound `Nc1ncn(Cc2c(Br)ccnc2Cl)c2ncnc1-2` [3-[(4-bromo-2-chloro-3-pyridyl)methyl]-3-hydropurine-6-ylamine], the IC50 lay in the range of 1000 to 20000 nM.

For the compound `CCNc1ncn(Cc2c(Cl)cccc2Cl)c2ncnc1-2` [[3-(2,6-Dichloro-benzyl)-3H-purin-6-yl]-ethyl-amine], the IC50 is 1000 to 20000 nM.

Regarding `CCCCCNc1ncn(Cc2c(Cl)cccc2Cl)c2ncnc1-2` [[3-(2,6-Dichloro-benzyl)-3H-purin-6-yl]-pentyl-amine], the IC50 is 1000 to 20000 nM.

`N#Cc1ccc(Nc2ncn(Cc3c(Cl)cccc3Cl)c3ncnc2-3)cc1` [4-({3-[(2,6-Dichlorophenyl)methyl]-3-hydropurin-6-yl}amino)benzenecarbonitrile]: the IC50 was in the range of 1000 to 20000 nM.

For `Cc1cccc(C)c1Nc1ncn(Cc2c(Cl)cccc2Cl)c2ncnc1-2` [{3-[(2,6-Dichlorophenyl)methyl](3-hydropurin-6-yl)}(2,6-dimethylphenyl)amine], the IC50 lay within 1000 to 20000 nM.

`Fc1cccc(Cl)c1Cn1cnc(NCc2ccco2)c2ncnc1-2` [[3-(2-Chloro-6-fluoro-benzyl)-3H-purin-6-yl]-furan-2-ylmethyl-amine] had an IC50 of 1000 to 20000 nM.

In the case of `Clc1ccc(CNc2ncn(Cc3c(Cl)cccc3Cl)c3ncnc2-3)cc1` [N-(4-chlorobenzyl)-3-(2,6-dichlorobenzyl)-3h-purin-6-amine], the IC50 lay within 1000 to 20000 nM.

`Nc1ncn(Cc2c(Cl)cccc2Cl)c2nc(C(c3ccccc3)c3ccccc3)nc1-2` [3-[(2,6-Dichlorophenyl)methyl]-8-(diphenylmethyl)-3-hydropurine-6-ylamine] showed an IC50 of at most 1000 nM.

`Nc1ncn(Cc2nc3ccccc3s2)c2ncnc1-2` [3-(benzo[d]thiazol-2-ylmethyl)-3H-purin-6-amine] had an IC50 of 1000 to 20000 nM.

`Cc1ccc(S(=O)(=O)Nc2ncn(Cc3c(Cl)cccc3Cl)c3ncnc2-3)cc1` [{3-[(2,6-dichlorophenyl)methyl](3-hydropurin-6-yl)}[(4-methylphenyl)sulfonyl]amine] yielded a half-inhibitory concentration (IC50) of at least 20000 nM.

For the compound `Clc1ccc(Cn2cnc(NCc3ccco3)c3ncnc2-3)cc1` [[3-(4-Chloro-benzyl)-3H-purin-6-yl]-furan-2-ylmethyl-amine], the IC50 is at least 20000 nM.

In turn, `Nc1ncn(Cc2c(Cl)cccc2Cl)c2nc(C3CCC3)nc1-2` [3-[(2,6-Dichlorophenyl)methyl]-8-cyclobutyl-3-hydropurine-6-ylamine] showed an IC50 of at most 1000 nM.

`FC(F)Oc1cccc(Nc2ncn(Cc3c(Cl)cccc3Cl)c3ncnc2-3)c1` [3-(2,6-dichlorobenzyl)-N-(3-(difluoromethoxy)phenyl)-3H-purin-6-amine] had an IC50 of 1000 to 20000 nM.

Consider `Cc1cccc(Cn2cnc(N)c3ncnc2-3)n1` [3-(6-Methyl-pyridin-2-ylmethyl)-3H-purin-6-ylamine], for which the IC50 was at least 20000 nM.

For `FC(F)(F)c1cccc(Nc2ncn(Cc3c(Cl)cccc3Cl)c3ncnc2-3)c1` [3-(2,6-dichlorobenzyl)-N-(3-(trifluoromethyl)phenyl)-3H-purin-6-amine], the IC50 is 1000 to 20000 nM.

Source of the values: patent US20200338084A1, “INHIBITORS OF LOW MOLECULAR WEIGHT PROTEIN TYROSINE PHOSPHATASE (LMPTP) AND USES THEREOF” (Sanford Burnham Prebys Medical Discovery Institute, priority 2018, published 2020).
